Experiments:
Experiment in all cases: relative viability (nuclei count vs DMSO), 5 days (fraction); higher = more cells survive
[1] = compound: CCn1c(-c2nonc2N)nc2c(C#CC(C)(C)O)ncc(OC[C@H]3CCCNC3)c21 + Cc1nc(Nc2ncc(C(=O)Nc3c(C)cccc3Cl)s2)cc(N2CCN(CCO)CC2)n1 [Dasatinib] (partner 0.075 µM)
Summary of the method: (§1)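 Dosing by pin tool came one day after lung cancer cell lines were seeded in 1536-well plates, using either one drug or a fixed anchor-drug dose plus five library-drug doses (not always all listed) in √10 steps. After 5 days, nuclei were counted on 4× images. Relative viability is treated-well nuclei count divided by vehicle-well nuclei count, and values are medians of duplicate plates.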

[2] = compound: CCn1c(-c2nonc2N)nc2c(C#CC(C)(C)O)ncc(OC[C@H]3CCCNC3)c21 + CCNC(=O)c1noc(-c2cc(C(C)C)c(O)cc2O)c1-c1ccc(CN2CCOCC2)cc1 [Luminespib] (partner 0.01 µM)
Summary of the method: as §1

BAM7 + Bortezomib = compound: CCOC1=CC=CC=C1N=NC2=C(NN(C2=O)C3=NC(=CS3)C4=CC=CC=C4)C [BAM7] + CC(C)C[C@H](NC(=O)[C@H](Cc1ccccc1)NC(=O)c1cnccn1)B(O)O [Bortezomib] (partner 0.002 µM)
Summary of the method: as §1

BAM7 + Decitabine = compound: CCOC1=CC=CC=C1N=NC2=C(NN(C2=O)C3=NC(=CS3)C4=CC=CC=C4)C [BAM7] + Nc1ncn([C@H]2C[C@H](O)[C@@H](CO)O2)c(=O)n1 [Decitabine] (partner 2 µM)
Summary of the method: as §1

PC-3 [JPC-3] showed a relative viability ([1]; first compound 0.01 µM) of 0.932, a relative viability ([1]; first compound 0.03162 µM) of 0.967 and a relative viability ([1]; first compound 0.1 µM) of 1.02. It also gave a relative viability ([1]; first compound 0.3162 µM) of 0.986, a relative viability ([1]; first compound 1 µM) of 0.902 and a relative viability ([2]; first compound 0.01 µM) of 0.734. It also gave a relative viability ([2]; first compound 0.03162 µM) of 0.726, a relative viability ([2]; first compound 0.1 µM) of 0.709 and a relative viability ([2]; first compound 0.3162 µM) of 0.67. It also gave a relative viability ([2]; first compound 1 µM) of 0.591, a relative viability (BAM7 + Bortezomib; first compound 0.5 µM) of 0.824 and a relative viability (BAM7 + Bortezomib; first compound 5 µM) of 0.751. The relative viability (BAM7 + Bortezomib; first compound 15.81 µM) was 0.782, the relative viability (BAM7 + Bortezomib; first compound 50 µM) was 0.585 and the relative viability (BAM7 + Decitabine; first compound 0.5 µM) was 0.775. It also gave a relative viability (BAM7 + Decitabine; first compound 5 µM) of 0.808, a relative viability (BAM7 + Decitabine; first compound 15.81 µM) of 0.688 and a relative viability (BAM7 + Decitabine; first compound 50 µM) of 0.766.
In the case of PC-14, the relative viability ([1]; first compound 0.01 µM) is reported as 0.243, the relative viability ([1]; first compound 0.03162 µM) is reported as 0.292 and the relative viability ([1]; first compound 0.1 µM) is reported as 0.28. For the same cell line, the relative viability ([1]; first compound 0.3162 µM) was 0.237, the relative viability ([1]; first compound 1 µM) was 0.301 and the relative viability ([2]; first compound 0.01 µM) was 0.173. It also gave a relative viability ([2]; first compound 0.03162 µM) of 0.112, a relative viability ([2]; first compound 0.1 µM) of 0.158 and a relative viability ([2]; first compound 0.3162 µM) of 0.107. The relative viability ([2]; first compound 1 µM) was 0.148, the relative viability (BAM7 + Bortezomib; first compound 0.5 µM) was 0.918 and the relative viability (BAM7 + Bortezomib; first compound 5 µM) was 1.03. It also gave a relative viability (BAM7 + Bortezomib; first compound 15.81 µM) of 0.846, a relative viability (BAM7 + Bortezomib; first compound 50 µM) of 0.806 and a relative viability (BAM7 + Decitabine; first compound 0.5 µM) of 0.243. For the same cell line, the relative viability (BAM7 + Decitabine; first compound 5 µM) was 0.183, the relative viability (BAM7 + Decitabine; first compound 15.81 µM) was 0.208 and the relative viability (BAM7 + Decitabine; first compound 50 µM) was 0.208.
Cell Line RERF-LC-KJ has a relative viability ([1]; first compound 0.01 µM) of 0.708, a relative viability ([1]; first compound 0.03162 µM) of 0.815 and a relative viability ([1]; first compound 0.1 µM) of 0.748. For the same cell line, the relative viability ([1]; first compound 0.3162 µM) was 0.678, the relative viability ([1]; first compound 1 µM) was 0.565 and the relative viability ([2]; first compound 0.01 µM) was 1.12. The relative viability ([2]; first compound 0.03162 µM) was 1.31, the relative viability ([2]; first compound 0.1 µM) was 1.27 and the relative viability ([2]; first compound 0.3162 µM) was 1.19. For the same cell line, the relative viability ([2]; first compound 1 µM) was 1.1, the relative viability (BAM7 + Bortezomib; first compound 0.5 µM) was 1.05 and the relative viability (BAM7 + Bortezomib; first compound 5 µM) was 1.01. It also gave a relative viability (BAM7 + Bortezomib; first compound 15.81 µM) of 0.948, a relative viability (BAM7 + Bortezomib; first compound 50 µM) of 0.972 and a relative viability (BAM7 + Decitabine; first compound 0.5 µM) of 0.617. For the same cell line, the relative viability (BAM7 + Decitabine; first compound 5 µM) was 0.615, the relative viability (BAM7 + Decitabine; first compound 15.81 µM) was 0.398 and the relative viability (BAM7 + Decitabine; first compound 50 µM) was 0.48.
For SK-LU-1, the relative viability ([1]; first compound 0.01 µM) was 0.191, the relative viability ([1]; first compound 0.03162 µM) was 0.161 and the relative viability ([1]; first compound 0.1 µM) was 0.199. It also gave a relative viability ([1]; first compound 0.3162 µM) of 0.188, a relative viability ([1]; first compound 1 µM) of 0.158 and a relative viability ([2]; first compound 0.01 µM) of 0.22. It also gave a relative viability ([2]; first compound 0.03162 µM) of 0.2, a relative viability ([2]; first compound 0.1 µM) of 0.211 and a relative viability ([2]; first compound 0.3162 µM) of 0.22. The relative viability ([2]; first compound 1 µM) was 0.215, the relative viability (BAM7 + Bortezomib; first compound 0.5 µM) was 1.18 and the relative viability (BAM7 + Bortezomib; first compound 5 µM) was 1.46. The relative viability (BAM7 + Bortezomib; first compound 15.81 µM) was 1.3, the relative viability (BAM7 + Bortezomib; first compound 50 µM) was 1.39 and the relative viability (BAM7 + Decitabine; first compound 0.5 µM) was 0.626. The relative viability (BAM7 + Decitabine; first compound 5 µM) was 0.629, the relative viability (BAM7 + Decitabine; first compound 15.81 µM) was 0.693 and the relative viability (BAM7 + Decitabine; first compound 50 µM) was 0.697.
For SW 1573, the relative viability ([1]; first compound 0.01 µM) was 0.377, the relative viability ([1]; first compound 0.03162 µM) was 0.561 and the relative viability ([1]; first compound 0.1 µM) was 0.431. It also gave a relative viability ([1]; first compound 0.3162 µM) of 0.455, a relative viability ([1]; first compound 1 µM) of 0.354 and a relative viability ([2]; first compound 0.01 µM) of 0.215. It also gave a relative viability ([2]; first compound 0.03162 µM) of 0.563, a relative viability ([2]; first compound 0.1 µM) of 0.178 and a relative viability ([2]; first compound 0.3162 µM) of 0.584. The relative viability ([2]; first compound 1 µM) was 0.342, the relative viability (BAM7 + Bortezomib; first compound 0.5 µM) was 0.953 and the relative viability (BAM7 + Bortezomib; first compound 5 µM) was 1.07. For the same cell line, the relative viability (BAM7 + Bortezomib; first compound 15.81 µM) was 1.07, the relative viability (BAM7 + Bortezomib; first compound 50 µM) was 0.972 and the relative viability (BAM7 + Decitabine; first compound 0.5 µM) was 0.502. It also gave a relative viability (BAM7 + Decitabine; first compound 5 µM) of 0.551, a relative viability (BAM7 + Decitabine; first compound 15.81 µM) of 0.636 and a relative viability (BAM7 + Decitabine; first compound 50 µM) of 0.594.

— the supplement of paper PMC10307832
